# From paper PMC3063246, “Corticotropin Releasing Factor-Induced CREB Activation in Striatal Neurons Occurs via a Novel Gβγ Signaling Pathway” (PLoS ONE, 2011)
# “Also recorded” adds a separate entry of the source. Where two headings read alike, the source gives them in different places.
# Columns and labels:
# [1] = tested on: CRF-induced CREB phosphorylation in striatal neurons; experiment: Block of CRF-induced CREB phosphorylation; assay type: cell-based, rat
# [2] = tested on: depolarization-induced CREB phosphorylation; parameters: method as in 3 sources, ref 36 = [36]; PMID 11226322; doi:10.1073/pnas.051634198; 36 Wu GY Deisseroth K Tsien RW 2001 Activity-dependent CREB phosphorylation: convergence of a fast, sensitive calmodulin kinase pathway and a slow, less sensitive mitogen-activated protein kinase path ||| ref [36] (a number printed in a supplementary file, which may have a reference list of its own: not looked up in the article's list) ||| ref [71] (a number printed in a supplementary file, which may have a reference list of its own: not looked up in the article's list); details: 2 µM; cited from earlier work
# [3] = tested on: CREB phosphorylation in cultured striatal neurons; details: ISO via a Gαs pathway in striatal neurons; cited from earlier work
# Procedure: To test for a Gβγ-dependent mechanism in CRF-induced CREB phosphorylation, we utilized the Gβγ-specific inhibitor gallein (75 µM). […] To ensure that the effect of gallein was specific to CRF and not dampening all G-protein signaling, we stimulated our neurons with ISO (10 µM) in the presence of gallein. […] Indeed, this was in fact the ...
# [4] = tested on: cAMP in cultured striatal neurons; experiment: cAMP assay (Parameter cAMP kit) in cultured striatal neurons; assay type: cell-based, rat; details: ISO 10 µM, 15 min; IBMX 75 µM; positive control
# [5] = tested on: depolarization-induced CREB phosphorylation; assay type: cell-based
# [6] = tested on: CREB phosphorylation in cultured striatal neurons; assay type: cell-based, rat
compound,measurement,setting,value
COc1ccc(S(=O)(=O)N(CCO)c2ccccc2CN(C)C/C=C/c2ccc(Cl)cc2)cc1 [KN-93],effect on CRF-induced CREB phosphorylation,"[1]; inhibitor 2 µM, 30 min prior and concurrently, CRF 15 min",had no effect on CRF-induced CREB phosphorylation; also recorded: did not affect CRF-induced CREB phosphorylation
same,effect on depolarization-induced CREB phosphorylation,[2],blocks depolarization-induced CREB phosphorylation
CC(C)NCC(O)c1ccc(O)c(O)c1 (centres unmarked) [isoproterenol],CREB phosphorylation,[3],leads to CREB phosphorylation
same,cAMP concentration,[4],significant increase in cAMP
cholera toxin [CTX],effect on 60 mM K+ depolarization-induced (MAPK-dependent) CREB phosphorylation,[5],had no effect on MAPK-dependent CREB phosphorylation; also recorded: unaffected
same,pCREB after toxin alone,[6],transient increase in pCREB on its own
same,pCREB signal after toxin alone,[6],2809.7±104.5
same,effect on CRF-induced CREB phosphorylation,[1],blocked CRF-induced CREB phosphorylation; also recorded: complete block of CRF-induced CREB phosphorylation
